We go through ten compounds from ChEMBL document CHEMBL1201862, “PubChem BioAssay data set” (2004).

What all share (experiment): inhibition of tumour cell growth, NCI panel, 48 h
The test system of assay [1] is SK-MEL-28.
Assay [2] relates to HCC 2998.
Assay [3] concerns UACC-257.
Assay [4] deals with SNB-19.
The subject of assay [5] is NCI-H522.
Assay [6] concerns OVCAR-8.
Assay [7] has as its system Hs-578T.
Assay [8] relates to OVCAR-3.
Assay [9] deals with HOP-92.
The subject of assay [10] is SW-620.
Assay [11] deals with HT-29.
Assay [12] relates to Malme-3M.
For assay [13], the system named is RXF 393.
The subject of assay [14] is MOLT-4.
Assay [15] deals with SN12C.
In assay [16] the test system is SF-539.
In assay [17] the test system is M14.
Assay [18] relates to U-251.
Assay [19] relates to COLO 205.
Assay [20] relates to K562.

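96-well plates; 48 h exposure; 5 concentrations. Endpoints by linear interpolation between flanking doses. Not reached: highest tested concentration assigned. GI50 is the concentration that inhibits growth by half.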 The source made the active and inactive calls. No stated cut-off is given here; in the data, active = GI50 up to about 1.1 µM and inactive = higher. Where a SMILES comes first, the peptide text is derived from it. [ ]: non-standard residue; d: D form. The star is where a group is joined. Cbz = O=C(OCc1ccccc1)*; Aib = CC(C)(N)C(=O)O; OBn = c1ccc(CO*)cc1

Take `COc1ccc2c(C=O)c3n(c(=O)c2c1OC)CCc1cc2c(cc1-3)OCO2`: the GI50 in assay [1] was > 100 µM (inactive); in assay [2], 14.2 µM (inactive); in assay [3], 32.2 µM (inactive); in assay [4], 76.4 µM (inactive); in [5], 30.4 µM (inactive); in assay [6], 23.4 µM (inactive). In addition, the GI50 is > 100 µM (inactive) in [7]; 80.5 µM (inactive) in assay [8]; 10.9 µM (inactive) in assay [9]; 38.6 µM (inactive) in assay [10]; 17.6 µM (inactive) in assay [11]; 80 µM (inactive) in assay [12]. For the same compound, the GI50 in [13] was 2.91 µM (inactive); in assay [14], 4.59 µM (inactive); in assay [15], 41.3 µM (inactive); in assay [16], > 100 µM (inactive); in assay [17], 18.6 µM (inactive); in assay [18], 40.6 µM (inactive). Further, in [19], the GI50 is 15.9 µM (inactive).
With `O=c1n(CC2CO2)c(=O)n(CC2CO2)c(=O)n1CC1CO1` (centres undefined) [TEROXIRONE], the GI50 is 54.5 µM (inactive) in assay [1]; 43.7 µM (inactive) in assay [2]; 32.7 µM (inactive) in assay [3]; 26.2 µM (inactive) in [4]; 13.6 µM (inactive) in assay [5]; 33.3 µM (inactive) in assay [6]. For the same compound, the GI50 was 33.8 µM (inactive) in assay [7]; 32.7 µM (inactive) in assay [8]; 39.3 µM (inactive) in assay [9]; 34 µM (inactive) in [10]; 13.9 µM (inactive) in [11]; 22.8 µM (inactive) in assay [20]. For the same compound, the GI50 in [12] was 25.4 µM (inactive); in [13], 37 µM (inactive); in assay [14], 2.35 µM (inactive); in assay [15], 7.83 µM (inactive); in assay [16], 7.76 µM (inactive); in assay [17] it was 9.27 µM (inactive). The values for the GI50 in assay [18] and in assay [19] were 11 µM (inactive) and 14.3 µM (inactive), respectively.
As for `CC(NC(=O)C(C)(C)NC(=O)C(CC(=O)OCc1ccccc1)NC(=O)OCc1ccccc1)C(N)=O` (centres undefined) (Cbz-Asp(OBn)-[Aib]-Ala-NH2; configuration not given here), the GI50 in [1], in assay [2], in assay [3], in assay [4], in assay [5] and in assay [6] was > 100 µM (inactive) each time. The GI50 in [7], in assay [8], in assay [9], in [10], in assay [11] and in assay [20] was > 100 µM (inactive) in each case. For the same compound, the GI50 in [12], in [13], in assay [14], in assay [15], in assay [16] and in [17] was > 100 µM (inactive) each time. Also, the GI50 in assay [18] and in [19] was > 100 µM (inactive) in each case.
Take `Cc1ccc2nc(-c3ccc(N)c(Br)c3)sc2c1`: the GI50 in [1] is > 100 µM (inactive); in assay [2] it was 2.64 µM (inactive); in assay [3] it was 20 µM (inactive); in assay [4], 81.8 µM (inactive); in [5], 0.875 µM (active); in [6], 48.2 µM (inactive). The GI50 is 14.2 µM (inactive) in [7]; 10.1 µM (inactive) in assay [8]; 19.7 µM (inactive) in assay [9]; 40.7 µM (inactive) in assay [11]; 17.4 µM (inactive) in [20]; > 100 µM (inactive) in assay [12]. Besides, the GI50 in assay [13] was 18.2 µM (inactive); in assay [14] it was 4.33 µM (inactive); in assay [15], > 100 µM (inactive); in assay [16], 33.1 µM (inactive); in [17], 26.7 µM (inactive); in [18], 37.5 µM (inactive). For the same compound, the GI50 in [19] is 55.8 µM (inactive).
In the case of `CC1=C2CC(C)(C)/C=C\C(=O)/C(C)=C\C3=C[C@H](C)C[C@]3(O2)C1=O`, the GI50 in [1] was 0.798 µM (active); in assay [2] it was 4.85 µM (inactive); in assay [3], 1.14 µM (inactive); in assay [4] it was 17.2 µM (inactive); in assay [5] it was 0.201 µM (active); in assay [6], 0.9 µM (active). For the same compound, the GI50 is 2.26 µM (inactive) in [7]; 0.376 µM (active) in [8]; 1.09 µM (active) in [9]; 0.41 µM (active) in assay [10]; 0.927 µM (active) in assay [11]; 1.51 µM (inactive) in assay [20]. Moreover, the GI50 in assay [12] is 0.897 µM (active); in assay [13], 0.597 µM (active); in assay [14], 0.195 µM (active); in assay [15] it was 1.42 µM (inactive); in assay [16] it was 0.946 µM (active); in [17] it was 0.494 µM (active). The GI50 in assay [18] was 3.86 µM (inactive); in [19] it was 0.902 µM (active).
With `CCCCCCCCCCOc1ccc(/N=N/c2nnc(-c3ccc(OCCCCC)cc3)s2)cc1`, the GI50 in assay [1] is > 100 µM (inactive); in [2], > 100 µM (inactive); in [3], 49.9 µM (inactive); in assay [4], > 100 µM (inactive); in assay [5], > 100 µM (inactive); in assay [6] it was > 100 µM (inactive). The GI50 in assay [7] is > 100 µM (inactive); in [8], 97.3 µM (inactive); in assay [9] it was > 100 µM (inactive); in [10], > 100 µM (inactive); in assay [11] it was > 100 µM (inactive); in assay [20] it was > 100 µM (inactive). Besides, the GI50 in [12] was > 100 µM (inactive); in assay [13], 65 µM (inactive); in assay [14], > 100 µM (inactive); in [15], > 100 µM (inactive); in [16], > 100 µM (inactive); in assay [17], > 100 µM (inactive). Moreover, the GI50 in assay [18] and in assay [19] was > 100 µM (inactive) throughout.
With `CCc1c[n+]2c(cc1C1=CN3c4ccccc4[C@]45CCN6C/C(=C/CO)[C@H](C[C@H]64)[C@@H]([C@@H]1O)[C@H]35)-c1[nH]c3ccccc3c1CC2`, the GI50 in assay [1], in assay [2], in [3], in assay [4], in assay [5] and in assay [6] was > 50 µM (inactive) each time. In addition, the GI50 in assay [7], in assay [8], in assay [9], in assay [10], in assay [11] and in assay [20] was > 50 µM (inactive) each time. In addition, the GI50 in assay [12], in [13], in assay [14], in assay [15], in [16] and in assay [17] was > 50 µM (inactive) throughout. For the same compound, the GI50 in assay [18] and in assay [19] was > 50 µM (inactive) in each case.
In the case of `COc1c(C)c(OC)c(C(=O)CC(C)C)c(OC)c1C`, the GI50 in assay [1] is > 100 µM (inactive); in [2], > 100 µM (inactive); in assay [3], > 100 µM (inactive); in assay [4], 24.9 µM (inactive); in assay [5] it was > 100 µM (inactive); in assay [6], > 100 µM (inactive). Moreover, the GI50 in assay [7] is > 100 µM (inactive); in assay [8], > 100 µM (inactive); in assay [9] it was > 100 µM (inactive); in [10] it was > 100 µM (inactive); in [11], 63.4 µM (inactive); in assay [12], > 100 µM (inactive). In addition, the GI50 in assay [13] is > 100 µM (inactive); in assay [14], 43.7 µM (inactive); in assay [15], > 100 µM (inactive); in [16] it was > 100 µM (inactive); in assay [17], > 100 µM (inactive); in [18] it was > 100 µM (inactive). Further, in assay [19], the GI50 is > 100 µM (inactive).
Regarding `O=[N+]([O-])c1ccc(NN=C2c3ccccc3Cc3ccccc32)c([N+](=O)[O-])c1`, the GI50 was > 81.1 µM (inactive) in assay [1]; 6.41 µM (inactive) in assay [2]; 6.35 µM (inactive) in assay [3]; 2.13 µM (inactive) in assay [5]; 45.8 µM (inactive) in [6]; 4.07 µM (inactive) in assay [7]. Also, the GI50 in assay [8] was 2.39 µM (inactive); in assay [9] it was 20.8 µM (inactive); in assay [10], 5.85 µM (inactive); in [11] it was 2.88 µM (inactive); in assay [20] it was 4.32 µM (inactive); in [12], 3.39 µM (inactive). Further, the GI50 in assay [13] was > 24.4 µM (inactive); in assay [14], 6.87 µM (inactive); in assay [15] it was > 67.5 µM (inactive); in [16] it was 8.79 µM (inactive); in [17], 5.81 µM (inactive); in assay [18] it was 4.5 µM (inactive). Moreover, the GI50 in [19] was 4.52 µM (inactive).
`CC(C)(C)OC(=O)NC(Cc1ccc(OCc2ccccc2)cn1)C(=O)O` (centres undefined): the GI50 in assay [1] was > 100 µM (inactive); in assay [2], > 100 µM (inactive); in [3], > 100 µM (inactive); in assay [4], > 100 µM (inactive); in [5] it was 67 µM (inactive); in [6], > 100 µM (inactive). Also, the GI50 in assay [7], in assay [8], in assay [9], in assay [10], in assay [11] and in [20] was > 100 µM (inactive) in each case. For the same compound, the GI50 in [12], in assay [13], in assay [15], in assay [16], in assay [18] and in assay [19] was > 100 µM (inactive) each time.
